Data: patent US9938266B2, “Selective BACE1 inhibitors” (Eli Lilly and Company, priority 2015, dated 2018)
Like-named read-outs stand apart in the source and are kept apart here.

Experiments:
human BACE2 (1-460):Fc = target: T1, human BACE2 (1-460):Fc (Homo sapiens, UniProt Q9Y5Z0); test: BACE2 TMEM27 FRET Assay; type: biochemical
T1 construct: made in house; host or cells: HEK293 (transient, secreted into conditioned media, Protein A purified)
T1 sequence (Q9Y5Z0 21-460): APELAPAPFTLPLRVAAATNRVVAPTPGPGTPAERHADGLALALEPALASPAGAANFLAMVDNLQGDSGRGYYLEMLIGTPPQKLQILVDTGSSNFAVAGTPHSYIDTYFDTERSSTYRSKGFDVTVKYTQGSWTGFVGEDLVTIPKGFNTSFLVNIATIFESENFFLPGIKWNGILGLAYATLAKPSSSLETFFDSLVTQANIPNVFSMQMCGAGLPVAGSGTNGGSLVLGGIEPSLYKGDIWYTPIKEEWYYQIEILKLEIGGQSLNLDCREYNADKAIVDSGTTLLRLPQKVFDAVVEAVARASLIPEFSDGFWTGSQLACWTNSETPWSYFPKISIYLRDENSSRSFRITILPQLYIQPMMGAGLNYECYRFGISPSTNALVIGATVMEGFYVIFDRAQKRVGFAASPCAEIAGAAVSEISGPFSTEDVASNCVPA
Method: (§1) To assess BACE1 selectivity over BACE2, the test compound is evaluated in FRET-based enzymatic assays using specific substrates for BACE1 and BACE2 as described below. For in vitro enzymatic and cellular assays, the test compound is prepared in DMSO to make up a 10 mM stock solution. The stock solution is serially diluted in DMSO to obtain a ten-point dilution curve with final compound concentrations ranging from 10 μM to 0.05 nM in a 96-well round-bottom plate before conducting the in vitro enzymatic and whole cell assays.
Human BACE1 (accession number: AF190725) and human BACE2 (accession number: AF 204944) are cloned from total brain cDNA by RT-PCR. […]
(§2) Conditioned media of HEK293 cell transiently transfected with huBACE1:Fc or huBACE2:Fc cDNA are collected. […] The purity of final product is assessed by electrophoresis in 4-20% Tris-Glycine SDS-PAGE. […]
Transmembrane protein 27 (TMEM27) (Accession Number NM_020665), also known as Collectrin) is a recently described substrate for BACE2, but not BACE1 (Esterhazy, et al, Cell Metabolism, 14, 365-377 (2011)). […] The RFU of the mixture at time 0 is recorded at excitation wavelength 430 nm and emission wavelength 535 nm. […] The RFU at the end of incubation is recorded with the same excitation and emission settings used at time 0. […]

BACE1 = target: T2, BACE1 (Homo sapiens, UniProt P56817); test: SH-SY5YAPP695Wt Whole Cell Assay (Abeta ELISA); type: cell-based; conditions: SH-SY5YAPP695Wt cells, 24 hours
T2 construct: endogenous in cells; host or cells: SH-SY5Y (ATCC CRL2266) stably expressing human APP695Wt
Method: as §1
The routine whole cell assay for the measurement of inhibition of BACE1 activity utilizes the human neuroblastoma cell line SH-SY5Y (ATCC Accession No. CRL2266) stably expressing a human APP695Wt cDNA. Cells are routinely used up to passage number 6 and then discarded.
SH-SY5YAPP695Wt cells are plated in 96 well tissue culture plates at 5.0×10^4 cells/well in 200 μL culture media (50% MEM/EBSS and Ham's F12, 1× each sodium pyruvate, non-essential amino acids and Na bicarbonate containing 10% FBS). The following day, media is removed from the cells, fresh media added then incubated at 37° C. for 24 hours in the presence/absence of test compound at the desired concentration range.
At the end of the incubation, conditioned media are analyzed for evidence of beta-secretase activity by analysis of Abeta peptides 1-40 and 1-42 by specific sandwich ELISAs. […]

beta-secretase = target: T3, beta-secretase (Mus musculus, UniProt P56818); test: In Vivo Inhibition of Beta-Secretase (brain Abeta 1-x, PDAPP mice); conditions: young female PDAPP mice, three hours, vs vehicle; for Abeta 1-x peptide levels reduced in brain cortex: p<0.01
T3 construct: from tissue; host or cells: brain (hippocampus, cortex) of young female PDAPP mice, in vivo
Source text: Several animal models, including mouse, guinea pig, dog, and monkey, may be used to screen for inhibition of beta-secretase activity in vivo following compound treatment. Animals used in this invention can be wild type, transgenic, or gene knockout animals. For example, the PDAPP mouse model, prepared as described in Games et al., Nature 373, 523-527 (1995), and other non-transgenic or gene knockout animals are useful to analyze in vivo inhibition of Abeta and sAPPbeta production in the presence of inhibitory compounds. Generally, 2 month old PDAPP mice, gene knockout mice or non-transgenic animals are administered compound formulated in vehicles, such as corn oil, beta-cyclodextran, phosphate buffers, PHARMASOLVE®, or other suitable vehicles via oral, subcutaneous, intra-venous, feeding, or other route of administration. One to twenty-four hours following the administration of compound, animals are sacrificed, and brains are removed for analysis of Abeta 1-x. “Abeta 1-x” as used herein refers to the sum of Abeta species that begin with residue 1 and end with a C-terminus greater than residue 28. This detects the majority of Abeta species and is often called “total Abeta”. Total Abeta peptides (Abeta 1-x) levels are measured by a sandwich ELISA, using monoclonal 266 as a capture antibody and biotinylated 3D6 as reporting antibody. (See May, et al., Journal of Neuroscience, 31, 16507-16516 (2011)).
For acute studies, compound or appropriate vehicle is administered and animals are sacrificed at about 3 hours after dosing. Brain tissue, is obtained from selected animals and analyzed for the presence of Abeta 1-x. After chronic dosing brain tissues of older APP transgenic animals may also be analyzed for the amount of beta-amyloid plaques following compound treatment.
For Example 1, three hours following a 3, 10, and 30 mg/kg oral dose of the compound to young female PDAPP mice, Abeta 1-x peptide levels are reduced approximately 22%, 42%, and 51% in brain hippocampus and 26%, 43%, and 59% in brain cortex p<0.01, compared to vehicle-treated mice.

human BACE1(1-460):Fc = target: T4, human BACE1(1-460):Fc (Homo sapiens, UniProt P56817); test: BACE1 FRET Assay; type: biochemical; conditions: purified recombinant huBACE1:Fc, n=6, mean±SEM
T4 construct: made in house; host or cells: HEK293 (transient, secreted into conditioned media, Protein A purified)
Method: as §1
Human BACE1 (accession number: AF190725) and human BACE2 (accession number: AF 204944) are cloned from total brain cDNA by RT-PCR. The nucleotide sequences corresponding to amino acid sequences #1 to 460 are inserted into the cDNA encoding human IgG1 (Fc) polypeptide (Vassar et al., Science, 286, 735-742 (1999)). […]
as §2
Serial dilutions of the test compounds are prepared as described above. […] The RFU of the mixture at time 0 is recorded at excitation wavelength 355 nm and emission wavelength 460 nm, after brief mixing on a plate shaker. […] The RFU at the end of incubation is recorded with the same excitation and emission settings used at time 0. […]

T3 sequence (P56818 46-501): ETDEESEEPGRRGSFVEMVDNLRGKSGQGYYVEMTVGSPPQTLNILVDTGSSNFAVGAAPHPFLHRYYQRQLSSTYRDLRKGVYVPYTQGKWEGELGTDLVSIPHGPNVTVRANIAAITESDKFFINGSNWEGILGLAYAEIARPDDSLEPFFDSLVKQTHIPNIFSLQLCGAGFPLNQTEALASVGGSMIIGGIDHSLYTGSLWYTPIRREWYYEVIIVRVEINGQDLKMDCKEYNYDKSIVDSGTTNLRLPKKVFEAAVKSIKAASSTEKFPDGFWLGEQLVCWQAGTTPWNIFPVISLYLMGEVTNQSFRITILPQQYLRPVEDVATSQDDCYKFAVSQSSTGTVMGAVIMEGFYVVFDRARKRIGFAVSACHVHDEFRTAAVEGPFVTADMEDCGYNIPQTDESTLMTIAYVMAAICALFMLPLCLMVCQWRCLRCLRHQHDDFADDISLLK
T2 sequence (P56817 46-501): as the sequence (P56818 46-501) above, with S6P, I162V, I165L, T180S, A182V, V340I, A393L, H443Q counted along it
T4 sequence (P56817 22-460): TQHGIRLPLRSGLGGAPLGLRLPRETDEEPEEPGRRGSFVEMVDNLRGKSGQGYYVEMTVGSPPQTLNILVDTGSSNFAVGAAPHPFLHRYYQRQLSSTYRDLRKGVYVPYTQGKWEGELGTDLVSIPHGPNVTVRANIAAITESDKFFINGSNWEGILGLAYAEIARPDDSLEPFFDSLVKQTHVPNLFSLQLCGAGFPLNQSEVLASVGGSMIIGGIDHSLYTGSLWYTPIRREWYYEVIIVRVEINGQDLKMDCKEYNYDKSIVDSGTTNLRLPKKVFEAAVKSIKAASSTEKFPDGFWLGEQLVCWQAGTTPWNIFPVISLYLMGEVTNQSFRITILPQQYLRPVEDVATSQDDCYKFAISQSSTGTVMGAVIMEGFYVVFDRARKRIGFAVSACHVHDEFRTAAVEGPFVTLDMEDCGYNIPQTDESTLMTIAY

NC1=N[C@@]2(c3cc(NC(=O)c4cnc(-n5cncn5)cn4)ccc3F)C[C@@H](OC3CC3)C[C@H]2CS1 [Example 1, N-[3-[(4aR,6S,7aS)-2-Amino-6-(cyclopropoxy)-4a,5,6,7-tetrahydro-4H-cyclopenta[d][1,3]thiazin-7a-yl]-4-fluoro-phenyl]-5-(1,2,4-triazol-1-yl)pyrazine-2-carboxamide]
IC50 (human BACE2 (1-460):Fc; huBACE2:Fc, TMEM27 FRET substrate, n=4, mean±SEM): 87.3 ± 11.1 nM | ratio of BACE2 IC50 (TMEM27 FRET) to BACE1 IC50 (FRET) (human BACE2 (1-460):Fc; selectivity for BACE1 over BACE2): about 91 fold | IC50 (BACE1; n=3, mean±SEM, read-out: IC50 SH-SY5YAPP695Wt A-beta (1-42) ELISA): 0.43 ± 0.08 nM | IC50 (BACE1; n=4, mean±SEM, read-out: IC50 SH-SY5YAPP695Wt A-beta (1-40) ELISA): 0.38 ± 0.14 nM | Abeta 1-x peptide levels reduced in brain hippocampus (beta-secretase; 3 mg/kg oral): approximately 22% | Abeta 1-x peptide levels reduced in brain cortex (beta-secretase; 3 mg/kg oral): ~26% | Abeta 1-x peptide levels reduced in brain hippocampus (beta-secretase; 10 mg/kg oral): ~42% | Abeta 1-x peptide levels reduced in brain cortex (beta-secretase; 10 mg/kg oral): ~43% | Abeta 1-x peptide levels reduced in brain hippocampus (beta-secretase; 30 mg/kg oral): ~51% | Abeta 1-x peptide levels reduced in brain cortex (beta-secretase; 30 mg/kg oral): ~59% | IC50 (human BACE1(1-460):Fc): 0.955 ± 0.093 nM
